Laboratory results taken from article PMC11022729 (Advanced Science, 2024).
Read-outs that look alike come from different tables or passages of the source.

Legend:
[1] = Metabolic stability assay in rat liver microsomes; assay type: in vitro ADME; details: for metabolic stability: 10 µM, 15, 30 and 60 min
Experimental: We next assessed the metabolic stability of these compounds (10 µM) in rat liver microsomes (Figure 2A). […] Therefore, we assumed that the occupation of metabolically labile sites at the aromatic core and the reduction in electron density at the oxidizable nitrogen atom of the piperazine ring might increase metabolic stability. Indeed, both the introduction of fluorine at R^2 and the introduction of an electron‐withdrawing carboxylic acid linker at R^3 improved metabolic stability. The substitution of chlorine with a trifluoromethyl group at R^1 was also beneficial. In contrast, homopiperazine and hydroxy linkers were metabolically labile.
The solubilized test compound (5 µL, final concentration 10 µM) was preincubated at 37 °C in 432 µL phosphate buffer (0.1 M, pH 7.4) together with 50 µL NADPH regenerating system (30 mM glucose‐6‐phosphate, 4 U mL^−1 glucose 6‐phosphate dehydrogenase, 10 mM NADP, and 30 mM MgCl2). After 5 min, the reaction started upon the addition of 13 µL of microsome mix from the liver of Sprague‐Dawley rats (Invitrogen; 20 mg protein per mL in 0.1 M phosphate buffer) in a shaking water bath at 37 °C. The reaction was stopped by adding 500 µL ice‐cold methanol at 0, 15, 30, and 60 min. The samples were centrifuged at 5000 × g for 5 min at 4 °C and the test compound was quantified from the supernatants by HPLC; the composition of the mobile phase was adapted to the test compound in a range of MeOH 40−90% and water (0.1% formic acid) 10−60%. Flow rate: 1 mL min^−1; stationary phase: Purospher STAR, RP18, 5 µm, 125 × 4; precolumn: Purospher STAR, RP18, 5 µm, 4 × 4; detection wavelength: 254 and 280 nm; injection volume: 50 µL. Control samples were used to evaluate the stability of the test compounds in the reaction mixture. The first control was without NADPH, which is needed for the enzymatic activity of the microsomes, the second control was with inactivated microsomes (incubated for 20 min at 90 °C), and the third control was without the test compound (to determine the baseline). The amounts of test compounds were quantified using an external calibration curve.

dopamine D1 receptor = molecular target: T1, dopamine D1 receptor (Homo sapiens, UniProt P21728); assay: SafetyScreen44 panel; assay type: binding
T1 construct: purchased Eurofins Cerep P270
T1 sequence (P21728 whole entry): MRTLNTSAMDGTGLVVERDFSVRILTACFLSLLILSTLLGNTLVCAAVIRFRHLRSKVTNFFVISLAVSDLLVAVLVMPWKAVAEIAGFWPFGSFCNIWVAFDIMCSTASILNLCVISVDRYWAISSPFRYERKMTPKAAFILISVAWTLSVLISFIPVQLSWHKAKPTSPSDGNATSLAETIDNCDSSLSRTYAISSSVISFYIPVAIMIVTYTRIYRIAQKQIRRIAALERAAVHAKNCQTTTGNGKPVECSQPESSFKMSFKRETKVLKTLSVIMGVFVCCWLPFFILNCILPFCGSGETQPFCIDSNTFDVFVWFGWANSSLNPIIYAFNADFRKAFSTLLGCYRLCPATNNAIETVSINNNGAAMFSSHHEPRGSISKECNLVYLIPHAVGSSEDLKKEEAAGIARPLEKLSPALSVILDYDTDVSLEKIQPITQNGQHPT
Experimental: (§1) Measurements were performed in duplicate.
(§2) channel, which were obtainedfrom ratspecimens).
(§3) in brackets) specific for each target.

dopamine D2S receptor = molecular target: T2, dopamine D2S receptor (Homo sapiens, UniProt P14416); assay: SafetyScreen44 panel; assay type: binding
T2 construct: purchased Eurofins Cerep P270
T2 sequence (P14416 1-414 isoform P14416-2): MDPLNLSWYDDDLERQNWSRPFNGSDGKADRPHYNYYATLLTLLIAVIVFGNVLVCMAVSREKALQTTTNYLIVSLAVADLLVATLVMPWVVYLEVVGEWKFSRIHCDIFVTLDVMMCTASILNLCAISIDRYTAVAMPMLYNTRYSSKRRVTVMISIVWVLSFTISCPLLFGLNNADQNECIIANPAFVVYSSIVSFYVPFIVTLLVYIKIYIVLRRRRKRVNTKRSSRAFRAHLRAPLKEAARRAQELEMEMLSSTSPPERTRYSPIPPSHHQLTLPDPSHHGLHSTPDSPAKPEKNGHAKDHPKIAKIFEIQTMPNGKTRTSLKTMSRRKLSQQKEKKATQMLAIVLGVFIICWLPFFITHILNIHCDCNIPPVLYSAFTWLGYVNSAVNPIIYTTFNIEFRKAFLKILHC
Experimental: as §1, §2, §3

[2] = molecular target: T3, norepinephrine transporter (NET) (Homo sapiens, UniProt P23975); assay: SafetyScreen44 panel; assay type: binding
T3 construct: purchased Eurofins Cerep P270
T3 sequence (P23975 whole entry): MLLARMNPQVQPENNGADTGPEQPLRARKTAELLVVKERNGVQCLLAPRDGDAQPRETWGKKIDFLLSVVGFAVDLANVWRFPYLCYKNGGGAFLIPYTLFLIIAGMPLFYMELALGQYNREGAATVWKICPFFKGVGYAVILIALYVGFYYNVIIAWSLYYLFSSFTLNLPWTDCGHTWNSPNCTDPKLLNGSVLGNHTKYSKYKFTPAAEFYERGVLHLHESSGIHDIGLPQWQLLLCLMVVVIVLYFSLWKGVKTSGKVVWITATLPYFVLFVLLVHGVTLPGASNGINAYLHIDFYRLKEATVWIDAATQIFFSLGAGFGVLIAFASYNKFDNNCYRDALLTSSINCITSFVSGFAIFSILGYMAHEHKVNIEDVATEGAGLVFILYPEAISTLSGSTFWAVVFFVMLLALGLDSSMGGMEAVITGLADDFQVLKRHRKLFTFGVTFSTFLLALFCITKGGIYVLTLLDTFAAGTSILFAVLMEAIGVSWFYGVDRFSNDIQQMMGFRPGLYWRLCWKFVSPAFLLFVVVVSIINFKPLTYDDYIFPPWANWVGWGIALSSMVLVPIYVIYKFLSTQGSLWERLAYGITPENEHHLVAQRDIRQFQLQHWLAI
Experimental: as §1, §2, §3

[3] = molecular target: T4, serotonin 5-HT2B receptor (Homo sapiens, UniProt P41595); assay: SafetyScreen44 panel; assay type: binding
T4 construct: purchased Eurofins Cerep P270
T4 sequence (P41595 whole entry): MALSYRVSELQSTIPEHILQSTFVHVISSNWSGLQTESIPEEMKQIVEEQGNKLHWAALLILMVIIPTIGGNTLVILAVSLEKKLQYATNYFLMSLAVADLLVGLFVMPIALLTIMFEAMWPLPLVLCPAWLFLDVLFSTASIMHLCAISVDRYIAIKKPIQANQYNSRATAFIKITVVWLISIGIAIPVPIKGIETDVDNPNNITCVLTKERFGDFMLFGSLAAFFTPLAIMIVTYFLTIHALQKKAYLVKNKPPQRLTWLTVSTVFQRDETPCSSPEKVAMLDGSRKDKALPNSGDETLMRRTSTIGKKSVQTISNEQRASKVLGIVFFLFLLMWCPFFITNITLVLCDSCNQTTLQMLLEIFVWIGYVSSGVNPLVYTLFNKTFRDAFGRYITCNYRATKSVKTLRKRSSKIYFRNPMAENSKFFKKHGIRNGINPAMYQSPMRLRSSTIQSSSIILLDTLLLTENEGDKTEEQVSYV
Experimental: as §1, §2, §3

[4] = molecular target: T5, serotonin transporter (SET) (Homo sapiens, UniProt P31645); assay: SafetyScreen44 panel; assay type: binding
T5 construct: purchased Eurofins Cerep P270
T5 sequence (P31645 whole entry): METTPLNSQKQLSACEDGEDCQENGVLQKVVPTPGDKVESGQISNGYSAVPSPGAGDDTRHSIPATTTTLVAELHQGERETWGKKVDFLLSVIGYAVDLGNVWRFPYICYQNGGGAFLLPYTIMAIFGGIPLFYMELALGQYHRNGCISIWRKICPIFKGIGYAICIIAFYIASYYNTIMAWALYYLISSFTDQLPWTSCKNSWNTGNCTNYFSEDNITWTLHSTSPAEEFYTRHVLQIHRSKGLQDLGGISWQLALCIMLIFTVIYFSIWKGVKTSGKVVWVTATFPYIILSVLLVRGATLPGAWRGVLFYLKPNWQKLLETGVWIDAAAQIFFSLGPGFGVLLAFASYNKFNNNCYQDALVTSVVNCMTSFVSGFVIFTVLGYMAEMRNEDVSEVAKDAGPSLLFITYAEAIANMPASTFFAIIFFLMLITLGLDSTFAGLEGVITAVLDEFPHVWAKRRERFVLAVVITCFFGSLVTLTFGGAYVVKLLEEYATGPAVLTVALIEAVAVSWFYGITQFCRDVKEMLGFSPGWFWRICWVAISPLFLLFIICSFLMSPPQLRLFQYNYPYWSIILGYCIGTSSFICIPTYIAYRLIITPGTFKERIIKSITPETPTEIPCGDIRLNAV
Experimental: as §1, §2, §3

[5] = tested on: voltage-gated (KV) potassium channel; assay: SafetyScreen44 panel; assay type: binding, rat; details: 10 µM
Experimental: as §1, §2, §3

[6] = Pharmacokinetics in mice (plasma and brain levels, LC-MS); assay type: in vivo; details: mouse
Experimental: To prepare for in vivo studies, we investigated the pharmacokinetic properties of compound 6. […] For comparison, we determined the plasma and brain loxapine levels. […] Collectively, the pharmacological and pharmacokinetic profiles of compound 6 make it an excellent molecule for in vivo pharmacodynamic studies.
Pharmacokinetic experiments were performed by Bienta (Enamine Biology Services, Kiev, Ukraine). Study design, animal selection, handling, and treatment were performed in accordance with the Enamine PK study protocols and the Institutional Animal Care and Use Guidelines. Male C57BL/6J mice (11–16 weeks old) were used in this study. The animals were fasted for 4 h before dosing. […] Each timepoint treatment group included three animals, and a control group was employed, including one animal.
Before collecting blood and brain tissue, the mice were anesthetized with 2,2,2‐tribromoethanol (150 mg kg^−1 i.p.). In studies with i.p. compound administration, the chest was opened, an incision was made in the right atrium, whole blood was collected into tubes containing K2EDTA, and the animals were perfused with saline (10 mL) prior to the excision of the brain tissue (left lobe). In studies with p.o. or i.v. delivery of compounds, blood was collected from the orbital sinus in microtainers containing K3EDTA, the animals were sacrificed by cervical dislocation, and the brain tissue (left lobe) was excised. After collection, the blood samples were centrifuged for 10 min at 3000 rpm, and the brain samples were weighed. All samples were immediately processed, flash‐frozen, and stored at −70 °C until subsequent analysis.
The compound levels in the plasma and brain samples were determined using liquid chromatography–tandem mass spectrometry (LC‐MS/MS) by a staff member from Bienta. Pharmacokinetic data analysis was performed using non‐compartmental, bolus injection, or extravascular input analysis models with WinNonlin 5.2 (PharSight). Data below the lower limit of quantitation were presented as missing data to improve the validity of the half‐life calculations. For each treatment condition, the final concentration values obtained at each time point were analyzed for outliers using Grubbs' test, with the level of significance set at p < 0.05. The sum of the AUC0‐inf (area under the concentration‐time curve from zero to time infinity) was used to estimate the ratiobrain/plasma (concentration ratio of the compound in the brain and plasma).

mice = assay: Chloroquine-induced itch behavior, wildtype mice; assay type: in vivo, mouse
Experimental: (§4) We then assessed the antipruritic efficacy of compound 6 in a model of histamine‐independent itching induced by the antimalarial drug chloroquine.
(§5) Three to four days before the day of the experiment, the fur on the dorsolateral aspect of the neck was shaved under brief isoflurane anesthesia. On the testing day, the mice were habituated to a Plexiglas cylinder (30 cm in diameter) for 30 min. Compound 6 hydrochloride or vehicle were i.p. or p.o. administered, and 15 min later, the pruritogens chloroquine (200 µg), SLIGRL (100 µg), β‐alanine (100 µg), or histamine (800 µg), all dissolved in 0.9% saline (20 µL), were injected subcutaneously into the nape of the neck.^[ [29] ^] Number of scratching bouts directed toward the nape of the neck was assessed over 30 min by videotaping. In experiments with the Slack inhibitor, compound 31 (ref. [27]; 30 mg kg^−1 in 0.9% NaCl with 2% DMSO and 10% Kolliphor) was i.p. administered 5 min prior to compound 6.

Slack−/− mice = assay: Chloroquine-induced itch behavior, Slack knockout mice; assay type: in vivo, mouse
Experimental: as §4, §5

[7] = male, C57BL/6J, ip, I.P. 2.5 mg/kg, brain
[8] = male, C57BL/6J, ip, I.P. 2.5 mg/kg, plasma
[9] = male, C57BL/6J, ip, I.P. 10 mg/kg, brain
[10] = male, C57BL/6J, ip, I.P. 10 mg/kg, plasma
[11] = male, C57BL/6J, iv, I.V. 1 mg/kg, brain
[12] = male, C57BL/6J, iv, I.V. 1 mg/kg, plasma
[13] = male, C57BL/6J, po, P.O. 10 mg/kg, brain
[14] = male, C57BL/6J, po, P.O. 10 mg/kg, plasma

CN1CCN(C2=Nc3ccccc3Oc3ccc(Cl)cc32)CC1 [Loxapine, reference compound]
metabolic stability [1]: metabolized rapidly | drug remaining unmodified ([1]; 10 µM, after 15 min): 6% | inhibition at 10 µM (dopamine D1 receptor; read-out: binding inhibition): > 50% | inhibition at 10 µM (dopamine D2S receptor; read-out: binding inhibition): > 50% | inhibition at 10 µM ([2]; read-out: binding inhibition): > 50% | inhibition at 10 µM ([3]; read-out: binding inhibition): > 50% | inhibition at 10 µM ([4]; read-out: binding inhibition): > 50% | binding [5]: did not measurably bind | Kp ([6]; male, C57BL/6J, brain and plasma, ip, 2.5 mg kg−1 i.p., from AUC0-inf, read-out: ratio brain/plasma): 5.12 | AUC(0-inf) [6, 7]: 913 ng·h/mL | Cmax [6, 7]: 493 ng/mL | Tmax [6, 7]: 15 min | half-life ([6]; male, C57BL/6J, ip, I.P. 2.5 mg/kg, brain, read-out: t1/2): 82.2 min | AUC(0-inf) [6, 8]: 178 ng·h/mL | Cmax [6, 8]: 143 ng/mL | Tmax [6, 8]: 15 min | half-life ([6]; male, C57BL/6J, ip, I.P. 2.5 mg/kg, plasma, read-out: t1/2): 61.9 min | chloroquine-induced scratching behavior (mice; wildtype mice, systemic low dose, preliminary experiments): considerably alleviated | chloroquine-induced scratching behavior (Slack−/− mice; Slack knockout mice, systemic low dose, preliminary experiments): did not affect

O=C(O)COCCN1CCN(C2=Nc3ccccc3Oc3ccc(Cl)cc32)CC1 [Compound 6]
metabolic stability [1]: highest metabolic stabilities | binding inhibition (dopamine D1 receptor; 10 µM): substantial binding | binding inhibition (dopamine D2S receptor; 10 µM): substantial binding | binding inhibition ([2]; 10 µM): substantial binding | binding inhibition ([3]; 10 µM): substantial binding | binding inhibition ([4]; 10 µM): substantial binding | binding [5]: did not measurably bind | AUC(0-inf) [6, 9]: 6780 ng·h/mL | Cmax [6, 9]: 5490 ng/mL | Tmax [6, 9]: 15 min | half-life ([6]; male, C57BL/6J, ip, I.P. 10 mg/kg, brain, read-out: t1/2): 39.7 min | AUC(0-inf) [6, 10]: 5600 ng·h/mL | Cmax [6, 10]: 6280 ng/mL | Tmax [6, 10]: 15 min | half-life ([6]; male, C57BL/6J, ip, I.P. 10 mg/kg, plasma, read-out: t1/2): 35 min | AUC(0-inf) [6, 11]: 520 ng·h/mL | Cmax [6, 11]: 493 ng/mL | Tmax [6, 11]: 15 min | half-life ([6]; male, C57BL/6J, iv, I.V. 1 mg/kg, brain, read-out: t1/2): 62.1 min | AUC(0-inf) [6, 12]: 473 ng·h/mL | Cmax [6, 12]: 562 ng/mL | half-life ([6]; male, C57BL/6J, iv, I.V. 1 mg/kg, plasma, read-out: t1/2): 52.5 min | half-life ([6]; male, C57BL/6J, plasma and brain, ip, 10 mg kg−1 i.p., first-order kinetics, read-out: half-life in the plasma and brain): ~35 min | AUC(0-inf) [6, 13]: 3750 ng·h/mL | Cmax [6, 13]: 2460 ng/mL | Tmax [6, 13]: 15 min | half-life ([6]; male, C57BL/6J, po, P.O. 10 mg/kg, brain, read-out: t1/2): 71.9 min | AUC(0-inf) [6, 14]: 4070 ng·h/mL | Cmax [6, 14]: 3140 ng/mL | Tmax [6, 14]: 15 min | half-life ([6]; male, C57BL/6J, po, P.O. 10 mg/kg, plasma, read-out: t1/2): 67.4 min | blood–brain barrier crossing ([6]; 10 mg kg−1 i.p.): readily crossed the blood–brain barrier | chloroquine-induced scratching behavior (mice; 15 mg kg−1 p.o.): profound antipruritic effect | chloroquine-induced scratching behavior (mice; 3, 10, or 30 mg kg−1 i.p. 15 min prior to s.c. chloroquine, scratching bouts over 30 min): ameliorated scratching behavior in a dose‐dependent manner | chloroquine-induced scratching (Slack−/− mice; Slack−/− mice, i.p.): did not significantly alter
